Measurements taken from ChEMBL document CHEMBL5154818, “Development of oxoisoaporphine derivatives with topoisomerase I inhibition and reversal of multidrug resistance in breast cancer MCF-7/ADR cells” (Eur J Med Chem, 2022).

Tests used:
L02 = experiment: Antiproliferative activity against human L02 cells after 48 hrs by MTT assay; assay type: functional, cell-based; details: L02, 48 h
MDA-MB-231 = experiment: Antiproliferative activity against human MDA-MB-231 cells after 48 hrs by MTT assay; assay type: functional, cell-based; details: MDA-MB-231, 48 h
NCI/ADR-RES [1] = experiment: Antiproliferative activity against human MCF7/ADR cells after 48 hrs by MTT assay; assay type: functional, cell-based
NCI/ADR-RES [2] = experiment: Reversal of multidrug resistant activity in human MCF7/ADR cells after 48 hrs by MTT assay; assay type: functional, cell-based
MCF7 [3] = experiment: Antiproliferative activity against human MCF7 cells assessed as growth inhibition at 3 uM after 48 hrs by MTT assay relative to control; assay type: functional; details: read-out: GI
MCF7 [4] = experiment: Antiproliferative activity against human MCF7 cells after 48 hrs by MTT assay; assay type: functional, cell-based; details: MCF7, 48 h
HepG2 = experiment: Antiproliferative activity against human HepG2 cells after 48 hrs by MTT assay; assay type: functional, cell-based; details: HepG2, 48 h
A549 = experiment: Antiproliferative activity against human A549 cells after 48 hrs by MTT assay; assay type: functional, cell-based; details: A549, 48 h
Calf thymus DNA [5] = experiment: Binding affinity to calf thymus DNA assessed as hypochromicity at 20 uM measured by UV-vis absorption spectroscopy; assay type: nucleic-acid assay; details: Bos taurus
Calf thymus DNA [6] = experiment: Binding affinity to calf thymus DNA assessed as red shift in absorption spectra at 20 uM by UV-vis absorption spectroscopy; assay type: nucleic-acid assay; details: Bos taurus

Compound	IC50 (MDA-MB-231) [µM]	IC50 (MCF7 [4]) [µM]	IC50 (HepG2) [µM]	IC50 (A549) [µM]	Activity (Calf thymus DNA [5]) [%]	OD (Calf thymus DNA [6]) [nm]	IC50 (L02) [µM]	IC50 (NCI/ADR-RES [1]) [µM]	IC50 (NCI/ADR-RES [2]) [µM]	inhibition of growth at 3 µM (MCF7 [3]) [%]
COc1cccc2c1C(=O)c1c(O)c3c(c(O)c1C2=O)C[C@@](O)(C(=O)CO)C[C@@H]3O[C@H]1C[C@H](N)[C@H](O)[C@H](C)O1 [DOXORUBICIN]							0.18			
O=C1c2ccccc2-c2nccc3c(OCCCCn4ccnc4[N+](=O)[O-])ccc1c23	10	9.78	10.9	10.6			37.3	13.5		
O=C1c2ccccc2-c2nccc3cccc1c23	32.2	24	28.2	26.2			> 50	40.9		
O=C1c2ccccc2-c2nccc3c(OCCCN4CCOCC4)ccc1c23	9.52	7.58	10.3	9.23			32.4	14.6	1.81	3.73
CN1CCN(CCCCOc2ccc3c4c(nccc24)-c2ccccc2C3=O)CC1	11.1	8.67	11.9	11.1			> 50	13.2	1.8	6.68
Cc1cn(CCCOc2ccc3c4c(nccc24)-c2ccccc2C3=O)cn1	12.1	9.35	12	11.2			23.8	17.1		
O=C1c2ccccc2-c2nccc3c(OCCCCn4cnc([N+](=O)[O-])c4)ccc1c23	11.4	9.34	14.3	12.2			> 50	18.3		
COc1ccc(CCN(C)CCCC(C#N)(c2ccc(OC)c(OC)c2)C(C)C)cc1OC (stereo not drawn)									2.83	
O=C1c2ccccc2-c2nccc3c(OCCCCn4cnc(Br)c4)ccc1c23	10.2	7.95	7.46	8.53			32.3	12.1		
O=C1c2ccccc2-c2nccc3c(OCCCn4ccnc4[N+](=O)[O-])ccc1c23	12	10.1	13.1	10.3			39.6	16.7		
CN1CCN(CCCOc2ccc3c4c(nccc24)-c2ccccc2C3=O)CC1	10.5	7.46	9.67	10			25.9	18.3	11.4	8.89

Further compounds by falling IC50 (MDA-MB-231), results first:

IC50 (MDA-MB-231) [µM]	IC50 (MCF7 [4]) [µM]	IC50 (HepG2) [µM]	IC50 (A549) [µM]	Activity (Calf thymus DNA [5]) [%]	OD (Calf thymus DNA [6]) [nm]	Compound	IC50 (L02) [µM]	IC50 (NCI/ADR-RES [1]) [µM]	IC50 (NCI/ADR-RES [2]) [µM]	inhibition of growth at 3 µM (MCF7 [3]) [%]
9.47	9.42	11.1	9.63			Cc1cn(CCCCOc2ccc3c4c(nccc24)-c2ccccc2C3=O)cn1	28.2	13.6		
9.43	8.46	10.3	9.63			O=C1c2ccccc2-c2nccc3c(OCCCCN4CCOCC4)ccc1c23	22.9	19.3	6.12	17.4
9.33	6.01	8.19	7.26			CN1CCN(CCOc2ccc3c4c(nccc24)-c2ccccc2C3=O)CC1	22.4	13.2	2.9	9.48
8.61	6.09	8.12	8.95			O=C1c2ccccc2-c2nccc3c(OCCCn4cnc(Br)c4)ccc1c23	36.8	11.2		
8.48	6.01	8.07	6.37			O=C1c2ccccc2-c2nccc3c(OCCN4CCOCC4)ccc1c23	> 50	11.2	10.1	8.33
8.46	9.95	10.1	8.46	22	1.6	CC1CCCCN1CCCCOc1ccc2c3c(nccc13)-c1ccccc1C2=O (stereo not drawn)	28.4	15.2	1.82	3.7
8.29	9.03	10.5	9.73			O=C1c2ccccc2-c2nccc3c(OCCCn4cnc([N+](=O)[O-])c4)ccc1c23	21.1	18.4		
8.29	10	8.67	7.36			O=C1c2ccccc2-c2nccc3c(OCCCCCn4cnc([N+](=O)[O-])c4)ccc1c23	23.8	11.5		
7.94	8.32	6.56	7.48	28.5	2	CC1CCCCN1CCCOc1ccc2c3c(nccc13)-c1ccccc1C2=O (stereo not drawn)	19.5	16.2	0.39	19.7
7.39	7.65	7.29	5.88			N#Cc1ncn(CCCCCOc2ccc3c4c(nccc24)-c2ccccc2C3=O)c1C#N	31.1	10.1		
7.34	10.2	8.42	6.17			N#Cc1ncn(CCCCOc2ccc3c4c(nccc24)-c2ccccc2C3=O)c1C#N	26.8	10.1		
7.18	9.29	8.13	6.09			O=C1c2ccccc2-c2nccc3c(OCCCCCn4ccnc4[N+](=O)[O-])ccc1c23	30.2	10.2		
